Measured values as given in patent US8697701B2, “Solid germicidal composition and disinfection method” (Ueno Fine Chemicals Industry, Ltd., priority 2012, dated 2014).

Key:
[1] = test system: Serratia marcescens (bacterium 2 isolated from a food factory); test: Test for inhibition of drug resistance development (repeated MIC, broth microdilution); type: cell-based; details: sample bacteria (iii) and (iv), eight MIC rounds, as compared to DDAC
Procedure: According to the standard method (broth microdilution method) of Japanese Society of Chemotherapy, minimal inhibitory concentration (MIC) was continuously measured. The compositions shown in Table 7 were diluted with sterile water to obtain drug solutions with a concentration of the composition of 0.007 to 1.792% by weight, and a nutrient broth medium adjusted to a concentration twice as high as the specified concentration (manufactured by Eiken Chemical Co., Ltd., normal bouillon medium ‘Eiken’ E-MC35) was added thereto in an amount equal to the drug solution. The obtained mixture was stirred and then dispensed to a microtiter plate (96 well) in an amount of 150 μl/well. […] The diluted culture was then seeded in an amount of 7.5 μl/well to the microtiter plate containing the medium prepared as described above. The plate was incubated in a constant temperature oven at 30° C. for 48 hours, the growth of the bacterium was checked by visual inspection, and MIC was determined. […] Using the diluted culture, MIC was determined again in the same manner as described above. MIC was determined eight times in total by repeating the above procedure, and changes in MIC were confirmed.
Sample Bacterium (iii): Serratia marcescens (Bacterium 2 Isolated from a Food Factory)

[2] = cited from earlier work
[3] = test system: Serratia marcescens (bacterium 1 isolated from a food factory); details: preliminary test, sensitization time 5 minutes
Procedure: The following sample bacterium (i) isolated from a food factory was cultured in a BHI bouillon medium at 30° C. for 24 hours. A 0.03 ml of a liquid obtained by diluting the cultured bacterium with a physiological saline solution to the concentration on the order of 10^6 cfu/ml was mixed with respective 3 ml of aqueous solutions, each of which was obtained by diluting an aqueous solution of the above solid germicidal composition (1.0% by weight) with sterile water so that the concentration of the solid germicidal composition would be 0.01, 0.02 and 0.04% by weight, respectively. The obtained mixture was then left at 25° C. for 5 minutes. After sensitization time elapsed, stirring was carried out again. One platinum loop of each mixture was taken and inoculated in 10 ml of a BHI bouillon medium. The medium was incubated at 30° C. for 48 hours. A BHI bouillon medium without inoculation of the bacterium was used as a reference, and turbidity of the medium was compared with the reference by visual inspection to determine the germicidal effect of the aqueous solution of the solid germicidal composition on the bacterium.
Sample Bacterium (i): Serratia marcescens (Bacterium 1 Isolated from a Food Factory)

SMILES | solubility in water at 20° C. [2] | also measured
CCCCCCCCCC[n+]1ccn(CCCCCCCCCCn2cc[n+](CCCCCCCCCC)c2C)c1C.[Cl-].[Cl-] [1,10-di(3-decyl-2-methylimidazolium)decane dichloride] | – | development of drug-resistant microorganisms [1]: hardly developed
O=C(O)/C=C/C(=O)O [Fumaric acid] | (solubility 0.51%) | –
O=C(O)CC(O)C(=O)O (stereo not shown) [Malic acid] | (solubility 55.8%) | –
CCCCCCCCCC[N+](C)(C)CCCCCCCCCC.[Cl-] [didecyl dimethyl ammonium chloride] | – | maximum concentration up to which proliferation of sample bacterium (i) was not inhibited [3]: > 80 ppm
